Consider six molecules from patent publication US12304890B2, “R-type pyridyloxycarboxylic acid, salt and ester derivative thereof, and preparation method therefor, and herbicidal composition and application thereof” (Qingdao Kingagroot Chemical Compound Co., Ltd., priority 2018, dated 2025).

Assay type in all cases: in vivo
The test system of one assay is Echinochloa crusgalli. The experiment in a line: Post-emergence test experiment, Echinochloa crusgalli. To be noted: 1000 g a.i./ha, 3 weeks in greenhouse, fresh weight inhibition. The procedure, abridged: (§1)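 Read-out is fresh weight inhibition rate, taken 3 weeks after spraying. Treatment was applied to plants at the 2-3 leaf stage, grown from seed under 0.5-2 cm soil in greenhouse pots. Spray solution contained acetone, tween-80 and methyl oleate emulsible concentrate at 1.5 liters per hectare.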

The test system of assay [1] is Monocotyledonous and dicotyledonous weed seeds and main crop seeds. The experiment in a line: Post-emergence test experiment, other weeds and crops (Table 4, 1000 g a.i./ha). The settings on record: 3 weeks in greenhouse, fresh weight inhibition. Put shortly:
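Weed and crop seeds (wheat, corn, rice, soybean, cotton, oilseed, millet, sorghum) sown in soil pots in a greenhouse and sprayed at 2-3 leaf stage, 2 weeks after sowing. Compound in acetone/tween-80 with methyl oleate concentrate (1.5 L/ha) as synergist. Effect recorded as fresh-weight growth inhibition rate.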

For the next assay, the system named is Digitaria sanguinalis. Description: Post-emergence test experiment, Digitaria sanguinalis. To be noted: 1000 g a.i./ha, 3 weeks in greenhouse, fresh weight inhibition. Put shortly:
as §1

Regarding `C[C@@H](Oc1nc(F)c(Cl)c(N)c1Cl)C(=O)Sc1ccncc1` [Compound 2-363], in the assay on Echinochloa crusgalli, the “Activity level (growth inhibition rate), Echinochloa crusgalli” value is reported as 5 (Level 5: the growth inhibition rate is greater than 85%). In addition, in assay [1], the “Activity level (growth inhibition rate), Abutilon theophrasti Medic.” value was 5 (Level 5: the growth inhibition rate is greater than 85%); the “Activity level (growth inhibition rate), Galium aparine” value is given as 5 (Level 5: the growth inhibition rate is greater than 85%); the “Activity level (growth inhibition rate), Monochoria Vaginalis” value was 5 (Level 5: the growth inhibition rate is greater than 85%). For the same molecule, the “Activity level (growth inhibition rate), Digitaria sanguinalis” value in the assay on Digitaria sanguinalis is 5 (Level 5: the growth inhibition rate is greater than 85%).

As to `C[C@@H](Oc1nc(F)c(Cl)c(N)c1Cl)C(=O)OCCBr` [Compound 2-278], the “Activity level (growth inhibition rate), Echinochloa crusgalli” value in the assay with Echinochloa crusgalli is listed as 5 (Level 5: the growth inhibition rate is greater than 85%). Also, in assay [1], the “Activity level (growth inhibition rate), Abutilon theophrasti Medic.” value was 5 (Level 5: the growth inhibition rate is greater than 85%); the “Activity level (growth inhibition rate), Galium aparine” value is listed as 5 (Level 5: the growth inhibition rate is greater than 85%); the “Activity level (growth inhibition rate), Monochoria Vaginalis” value is 5 (Level 5: the growth inhibition rate is greater than 85%). For the same molecule, the “Activity level (growth inhibition rate), Digitaria sanguinalis” value in the assay on Digitaria sanguinalis is on record as 5 (Level 5: the growth inhibition rate is greater than 85%).

As for `C=CCOC(=O)C(C)(C)OC(=O)C(C)Oc1nc(F)c(Cl)c(N)c1Cl` (stereo not drawn) [Compound 2-288], the “Activity level (growth inhibition rate), Echinochloa crusgalli” value in the assay with Echinochloa crusgalli was 5 (Level 5: the growth inhibition rate is greater than 85%). Also, in assay [1], the “Activity level (growth inhibition rate), Abutilon theophrasti Medic.” value was 5 (Level 5: the growth inhibition rate is greater than 85%); the “Activity level (growth inhibition rate), Galium aparine” value is 5 (Level 5: the growth inhibition rate is greater than 85%); the “Activity level (growth inhibition rate), Monochoria Vaginalis” value is recorded as 5 (Level 5: the growth inhibition rate is greater than 85%). In addition, the “Activity level (growth inhibition rate), Digitaria sanguinalis” value in the assay with Digitaria sanguinalis is given as 5 (Level 5: the growth inhibition rate is greater than 85%).

As for `CC(Oc1nc(F)c(Cl)c(N)c1Cl)C(=O)OCC#N` (stereo not drawn) [Compound 2-267], the “Activity level (growth inhibition rate), Echinochloa crusgalli” value with Echinochloa crusgalli is 5 (Level 5: the growth inhibition rate is greater than 85%). Further, in assay [1], the “Activity level (growth inhibition rate), Abutilon theophrasti Medic.” value was 5 (Level 5: the growth inhibition rate is greater than 85%); the “Activity level (growth inhibition rate), Galium aparine” value is listed as 5 (Level 5: the growth inhibition rate is greater than 85%); the “Activity level (growth inhibition rate), Monochoria Vaginalis” value was 5 (Level 5: the growth inhibition rate is greater than 85%). Besides, in the assay on Digitaria sanguinalis, the “Activity level (growth inhibition rate), Digitaria sanguinalis” value is reported as 5 (Level 5: the growth inhibition rate is greater than 85%).

As to `C[C@@H](Oc1nc(F)c(Cl)c(N)c1Cl)C(=O)OCc1ccoc1` [Compound 2-349], the “Activity level (growth inhibition rate), Echinochloa crusgalli” value in the assay with Echinochloa crusgalli was 5 (Level 5: the growth inhibition rate is greater than 85%). In addition, in assay [1], the “Activity level (growth inhibition rate), Abutilon theophrasti Medic.” value is 5 (Level 5: the growth inhibition rate is greater than 85%); the “Activity level (growth inhibition rate), Galium aparine” value is given as 5 (Level 5: the growth inhibition rate is greater than 85%); the “Activity level (growth inhibition rate), Monochoria Vaginalis” value was 5 (Level 5: the growth inhibition rate is greater than 85%). The “Activity level (growth inhibition rate), Digitaria sanguinalis” value in the assay on Digitaria sanguinalis was 5 (Level 5: the growth inhibition rate is greater than 85%).

On to `CC(Oc1nc(F)c(Cl)c(N)c1Cl)C(=O)SCc1ccccc1Br` (stereo not drawn) [Compound 2-321], for which the “Activity level (growth inhibition rate), Echinochloa crusgalli” value in the assay on Echinochloa crusgalli is given as 5 (Level 5: the growth inhibition rate is greater than 85%). Also, in assay [1], the “Activity level (growth inhibition rate), Abutilon theophrasti Medic.” value is reported as 5 (Level 5: the growth inhibition rate is greater than 85%); the “Activity level (growth inhibition rate), Galium aparine” value is 5 (Level 5: the growth inhibition rate is greater than 85%); the “Activity level (growth inhibition rate), Monochoria Vaginalis” value is on record as 5 (Level 5: the growth inhibition rate is greater than 85%). The “Activity level (growth inhibition rate), Digitaria sanguinalis” value in the assay on Digitaria sanguinalis is on record as 5 (Level 5: the growth inhibition rate is greater than 85%).
